Assay results from patent US7566453B2, “Methods for treating melanomas” (Chugai Seiyaku Kabushiki Kaisha, priority 1998, dated 2009).

Tests used:
[1] = test system: KPMM2, a human myeloma cell line; assay: Human myeloma cell-implanted SCID mouse system (Example 2): survival, disease-free ratio, serum M protein; assay type: in vivo; details: for Survival period: mean ± standard error; for Life-elongation ratio* (%): 100 × (drug administration group/drug non-administration group); for None disease ratio: survival ratio without disease on day 120
From the text: For evaluation of antitumor activity, a xenograft model was used. Thus, KPMM2, a human myeloma cell line derived from ascites of a patient with multiple myeloma was implanted to a male SCID mouse (FOX CHASE C. B17/Icr-Scid Jcl, purchased from Nippon Klea) via the tail vein. At this time, the tumor cells grow in the bone marrow and come to produce myeloma protein (M protein) in the peripheral blood. Furthermore, this model system is very close to an actual clinical condition in that it develops major symptoms of multiple myeloma in humans such as bone disorders, elevated blood calcium, and the like.
Single cell suspension of myeloma cells for implantation was prepared by passing through a mesh the well minced KPMM2 cells that have been maintained in vivo. Cell density was adjusted to 3×10^7/ml, which was implanted at 0.2 ml per mouse via the tail vein ([…]). The day when the cells were implanted was set at day 0.
This was given to mice at 0.2 ml per animal via the tail vein on day 8 (1 mg per mouse).
Melphalan (L-PAM, manufactured by Sigma Chemical Co.) that was suspended at 0.3 or 0.1 mg/ml in 0.2% CMC (carboxymethylcellulose) solution in water was used. This was given orally at 0.1 ml per 10 g body weight of mouse (3 or 1 mg/kg weight) for 5 consecutive days starting on day 1.
The experiment was carried out on the following six groups: (1) the melphalan and antibody non-administration group; (2) the 1 mg/kg melphalan single-drug administration group; (3) the 3 mg/kg melphalan single-drug administration group; (4) antibody single-drug administration group; (5) the 1 mg/kg melphalan and antibody combined administration group; and (6) the 3 mg/kg melphalan and antibody combined administration group. Group 1 included 9 mice, whereas each of the other groups included 7 mice. Furthermore, tumor was not implanted on mice of the same lineage and purchased on the same day, which were used as negative control for M protein detection.
Indices of the drug efficacy included the survival period, the survival ratio without disease on day 120, and the amount of M protein on day 30. For analysis using a survival curve, a generalized Wilcoxon's test (SPSS for windows ver. 6, SPSS inc.) was used. A significance level of 5% or lower was considered to be significant.
Serum M protein was detected as human IgG using the ELISA method. First, mouse serum was dispensed into a 96-well micro plate that had previously been coated with anti-human IgG antiserum and was allowed to stand. Then alkaline phosphatase-conjugated […] was bound thereto, and SIGMA104 phosphatase substrate was added for color development, absorbance of which was read using a microplate reader. M protein content in the serum was calculated using the standard curve obtained from normal human IgG.

[2] = test system: KPMM2 cells; assay: Human myeloma cell-implanted SCID mouse system, dose dependency of antibody (Example 3): survival, serum M protein; assay type: in vivo; details: for Life-elongation ratio (%): vs drug non-administration group; for Survival period: mean±standard error
Experimental: For evaluation of antitumor effects, a xenograft model animal that was produced by implanting KPMM2 cells via the tail vein was used as in Working example 2. Thus, single-cell suspensions which were prepared by passing through a mesh KPMM2 cells that were minced after having been maintained in vivo were implanted at 0.2 ml per mouse via the tail vein (6×10^6 cells per mouse). The day when the cells were implanted was set at day 0.
They were given to mice at 0.1 ml per 10 g body weight of mouse via the tail vein on day 14 to create the 50, 10, 2, and 0.4 mg/kg administration groups.
Melphalan (L-PAM, manufactured by Sigma Chemical Co.) was used as a suspension of 0.1 mg/ml in 0.2% CMC solution in water. This was given orally at 0.1 ml per 10 g body weight of mouse (1 mg/kg weight) for 5 consecutive days starting on day 7.
The experiment was carried out on the following 10 groups: (A) the melphalan and the antibody non-administration group; (B) the melphalan single-drug administration group; (C) the each dose of antibody single-drug administration group , 4 groups (50, 10, 2, 0.4 mg/kg weight); and, (D) the melphalan and the each dose of antibody combined administration group, 4 groups (50, 10, 2, 0.4 mg/kg weight). The non-administration group included 12 mice per group, the melphalan administration group 6 mice per group, whereas each of the other groups included 7 mice. Furthermore, mice of the same lineage and purchased on the same day were raised without implanting a tumor, and the animals were used as negative control for M protein detection. The amount of M protein was calculated as described in Example 2.
Indices of the drug efficacy included the survival period, and the amount of M proteins on day 30, day 35, and day 42. For analysis of the survival period, a generalized Wilcoxon's test (SPSS for Windows ver. 6, SPSS inc.) was used. A significance level of 5% or lower was considered to be significant. For analysis of the amount of M protein in the serum, the ANOVA (Analysis of variance, SPSS for windows ver. 6, SPSS inc.) was first conducted. After confirming significance, Bonferroni method (SPSS for windows ver. 6, SPSS inc.) was used, and a significance level of 5% or lower was considered to be significant.

[3] = melphalan 1 mg/kg orally, 5 days from day 1, no antibody
[4] = melphalan 3 mg/kg orally, 5 days from day 1, no antibody
[5] = hPM-1 1 mg per mouse via the tail vein on day 8, CMC control

Q: With NC(Cc1ccc(N(CCCl)CCCl)cc1)C(=O)O (stereo not drawn) [melphalan] as the compound, how does the “life elongation effect as compared to the non-administration group” value ([1]; 1 mg/ml melphalan administration group (FIG. 7)) read?
A: no life elongation effect

Q: And the “life elongation effect as compared to the non-administration group” value ([1]; 3 mg/kg melphalan single-drug administration (FIG. 9))?
A: significant life elongation effect

Q: What about the Survival period ([1]; melphalan 1 mg/kg orally, 5 consecutive days from day 1, no antibody) of the same compound?
A: 47.3 ± 3.1

Q: What about the “Life-elongation ratio* (%)” value [1, 3] of the same compound?
A: 101%

Q: What about the Survival period ([1]; melphalan 3 mg/kg orally, 5 consecutive days from day 1, no antibody) of the same compound?
A: 84.1 ± 9.1

Q: And the “Life-elongation ratio* (%)” value [1, 4]?
A: 175%

Q: And the None disease ratio [1, 3]?
A: 0/7

Q: And the None disease ratio [1, 4]?
A: 2/7

Q: And the “Life-elongation ratio (%)” value ([2]; melphalan 1 mg/kg orally 5 days from day 7, no antibody)?
A: 142%

Q: And the Survival period ([2]; melphalan 1 mg/kg orally, 5 consecutive days from day 7, no antibody)?
A: 58.2 ± 1.8

Q: And the “Life-elongation ratio (%), value in parentheses” value ([2]; melphalan 1 mg/kg, no antibody, melphalan single-drug administration group as control)?
A: 100%

Q: What about the “life elongation effect (survival period)” value ([2]; melphalan alone, 1 mg/kg) of the same compound?
A: significant life elongation effect

Q: And the “amount of M protein in the serum on day 30” value ([2]; melphalan single-drug administration, 1 mg/kg (FIG. 11))?
A: significantly inhibited

Q: With “hPM-1: reshaped human PM-1 antibody: CDRs of mouse anti-IL-6 receptor antibody PM-1 grafted to human antibody, produced in CHO cells” as the compound, how does the “life elongation effect as compared to the non-administration group” value ([1]; antibody single-drug administration, 1 mg per mouse on day 8 (FIG. 7)) read?
A: no life elongation effect

Q: And the “Life-elongation ratio* (%)” value [1, 5]?
A: 118%

Q: What about the Survival period [1, 5] of the same compound?
A: 55.1 ± 5.2

Q: What about the None disease ratio ([1]; hPM-1 1 mg per mouse on day 8, CMC control) of the same compound?
A: 0/7

Q: What about the “life elongation effect (survival period)” value ([2]; antibody single-drug administration, 50, 10, 2, 0.4 mg/kg) of the same compound?
A: none of the doses in the antibody single-drug administration group gave a significant life elongation effect

Q: What about the “amount of M protein in the serum on day 30” value ([2]; antibody single-drug administration, 50, 10, 2, 0.4 mg/kg on day 14 (FIG. 11)) of the same compound?
A: none of the doses significantly inhibited the amount of M protein

Q: What about the “Life-elongation ratio (%)” value ([2]; hPM-1 0.4 mg/kg on day 14, CMC control) of the same compound?
A: 98%

Q: And the Survival period ([2]; hPM-1 0.4 mg/kg via the tail vein on day 14, CMC control)?
A: 40.3 ± 1.2

Q: And the “Life-elongation ratio (%)” value ([2]; hPM-1 2 mg/kg on day 14, CMC control)?
A: 101%

Q: What about the Survival period ([2]; hPM-1 2 mg/kg via the tail vein on day 14, CMC control) of the same compound?
A: 41.4 ± 1.3

Q: And the “Life-elongation ratio (%)” value ([2]; hPM-1 10 mg/kg on day 14, CMC control)?
A: 99%

Q: What about the Survival period ([2]; hPM-1 10 mg/kg via the tail vein on day 14, CMC control) of the same compound?
A: 40.4 ± 1.7

Q: What about the “Life-elongation ratio (%)” value ([2]; hPM-1 50 mg/kg on day 14, CMC control) of the same compound?
A: 101%

Q: And the Survival period ([2]; hPM-1 50 mg/kg via the tail vein on day 14, CMC control)?
A: 41.6 ± 1.0
